Test results: patent US9695155B2, “Herbicidal substituted pyrimidinyloxy benzene compounds” (E. I. DU PONT DE NEMOURS AND COMPANY, priority 2013, dated 2017)

What was measured:
corn = assay: Test A postemergence; type: in vivo, Zea mays
Summary of the method: (§1)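 Visual 0–100 rating (100 = complete control) taken about 10 d post-treatment relative to untreated checks. Preemergence: directed soil spray on sown loam/sand pots. Postemergence: seedlings 2–10 cm, 1–2 leaf. Non-phytotoxic solvent formulation with surfactant.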

giant foxtail = assay: Test A postemergence; type: in vivo, Setaria faberii
Summary of the method: as §1

sedge, umbrella = assay: Test B flooded paddy test; type: in vivo, Cyperus difformis; settings: Flood, 250 g ai/ha, 0 to 100 scale where 0 is no effect and 100 is complete control
Summary of the method: (§2)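 2-leaf stage plants; pots flooded to 3 cm, compound added to paddy water, depth maintained. Greenhouse 13–15 d. Visual rating vs untreated controls, 0 (no effect) to 100 (complete control); dash = no result.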

pigweed [1] = assay: Test A preemergence; type: in vivo, Amaranthus retroflexus; settings: 0 to 100 scale where 0 is no effect and 100 is complete control
Summary of the method: as §1

Heteranthera limosa = assay: Test B flooded paddy test; type: in vivo; settings: Flood, 250 g ai/ha, 0 to 100 scale where 0 is no effect and 100 is complete control
Summary of the method: as §2

pigweed [2] = assay: Test A postemergence; type: in vivo, Amaranthus retroflexus
Summary of the method: as §1

barnyardgrass [3] = assay: Test A postemergence; type: in vivo, Echinochloa crus-galli
Summary of the method: as §1

barnyardgrass [4] = assay: Test C postemergence; type: in vivo, Echinochloa crus-galli
Summary of the method: (§3)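 Visual injury score versus untreated controls, 0 = no effect, 100 = complete control, taken 13 to 15 days after treatment in the greenhouse. Pre-emergence pots held loam/sand; post-emergence plants grew in sphagnum peat/vermiculite mix and were sprayed at the 1- to 4-leaf stage.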

rice = assay: Test B flooded paddy test; type: in vivo, Oryza sativa; settings: Flood, 250 g ai/ha, 0 to 100 scale where 0 is no effect and 100 is complete control
Summary of the method: as §2

barnyardgrass [5] = assay: Test A preemergence; type: in vivo, Echinochloa crus-galli; settings: 0 to 100 scale where 0 is no effect and 100 is complete control
Summary of the method: as §1

wheat = assay: Test A postemergence; type: in vivo, Triticum aestivum
Summary of the method: as §1

pigweed [6] = assay: Test C postemergence; type: in vivo, Amaranthus retroflexus; settings: for Pigweed plant response rating: 31 g ai/ha, 13 to 15 days
Summary of the method: as §3

velvetleaf = assay: Test C postemergence; type: in vivo, Abutilon theophrasti; settings: for Velvetleaf plant response rating: 31 g ai/ha, 13 to 15 days
Summary of the method: as §3

galium = assay: Test C postemergence; type: in vivo, Galium aparine
Summary of the method: as §3

kochia = assay: Test C postemergence; type: in vivo, Kochia scoparia
Summary of the method: as §3

[7] = postemergence, visual rating, scale 0 to 100 (0 no effect, 100 complete control)
[8] = 31 g ai/ha, 0 to 100 scale, 0 no effect, 100 complete control
[9] = 125 g ai/ha, 0 to 100 scale where 0 is no effect and 100 is complete control
[10] = 31 g ai/ha, visual, approximately 10 days
[11] = 8 g ai/ha, postemergence, 0 is no effect, 100 is complete control
[12] = 16 g ai/ha, postemergence, 0 is no effect, 100 is complete control
[13] = 31 g ai/ha, postemergence, visual rating, scale 0 to 100 (0 no effect, 100 complete control), 13 to 15 days

FC(F)c1cn(-c2ccccc2Oc2ncc(Cl)cn2)nn1 [Compound 147, 5-chloro-2-[2-[4-(difluoromethyl)-1H-1,2,3-triazol-1-yl]phenoxy]pyrimidine]
plant injury at 125 g/ha (corn; Zea mays, post-emergence, 240 h, 125 g ai/ha, 0 to 100 scale where 0 is no effect and 100 is complete control, read-out: Corn plant response rating): 40%
Corn plant response rating (crop injury, 0 = no effect, 100 = complete kill) at 500 g/ha (corn; Zea mays, post-emergence, 240 h, 500 g ai/ha, 0 to 100 scale where 0 is no effect and 100 is complete control): 90%
pest or weed control at 125 g/ha (giant foxtail; Setaria faberi, post-emergence, 240 h, 125 g ai/ha, 0 to 100 scale where 0 is no effect and 100 is complete control, read-out: Foxtail, Giant plant response rating): 90%
pest or weed control at 500 g/ha (giant foxtail; Setaria faberi, post-emergence, 240 h, 500 g ai/ha, 0 to 100 scale where 0 is no effect and 100 is complete control, read-out: Plant response rating, Foxtail, Giant): 90%
pest or weed control at 250 g/ha (sedge, umbrella; Cyperus difformis, read-out: Plant response rating, Sedge, Umbrella): 75%
pest or weed control at 125 g/ha (pigweed [1]; Amaranthus retroflexus, pre-emergence, 125 g ai/ha, read-out: Plant response rating, Pigweed): 100%
pest or weed control at 500 g/ha (pigweed [1]; Amaranthus retroflexus, pre-emergence, 240 h, 500 g ai/ha, read-out: Pigweed plant response rating): 100%
pest or weed control at 250 g/ha (Heteranthera limosa; Heteranthera limosa, read-out: Plant response rating, Ducksalad): 80%
pest or weed control at 500 g/ha (pigweed [2]; Amaranthus retroflexus, post-emergence, 500 g ai/ha, 0 to 100 scale where 0 is no effect and 100 is complete control, read-out: Plant response rating, Pigweed): 100%
pest or weed control at 125 g/ha (pigweed [2]; Amaranthus retroflexus, post-emergence, 240 h, 125 g ai/ha, 0 to 100 scale where 0 is no effect and 100 is complete control, read-out: Pigweed plant response rating): 100%
pest or weed control at 125 g/ha (barnyardgrass [3]; Echinochloa crus-galli, post-emergence, 240 h, 125 g ai/ha, 0 to 100 scale where 0 is no effect and 100 is complete control, read-out: Barnyardgrass plant response rating): 90%
pest or weed control at 500 g/ha (barnyardgrass [3]; Echinochloa crus-galli, post-emergence, 240 h, 500 g ai/ha, 0 to 100 scale where 0 is no effect and 100 is complete control, read-out: Plant response rating, Barnyardgrass): 90%
pest or weed control at 16 g/ha (barnyardgrass [4]; Echinochloa crus-galli, post-emergence, 16 g ai/ha, postemergence, 0 is no effect, 100 is complete control, read-out: Plant response rating (0 to 100), Barnyardgrass): 0%
pest or weed control at 31 g/ha (barnyardgrass [4]; Echinochloa crus-galli, post-emergence, 31 g ai/ha, postemergence, visual rating, scale 0 to 100 (0 no effect, 100 complete control), 13 to 15 days, read-out: Barnyardgrass plant response rating): 5%
pest or weed control at 125 g/ha (barnyardgrass [4]; Echinochloa crus-galli, post-emergence, 125 g ai/ha, postemergence, visual rating, scale 0 to 100 (0 no effect, 100 complete control), read-out: Plant response rating, Barnyardgrass): 10%
pest or weed control at 62 g/ha (barnyardgrass [4]; Echinochloa crus-galli, post-emergence, Postemergence, 62 g ai/ha, scale 0 to 100 (0 no effect, 100 complete control), read-out: Plant response rating, Barnyardgrass): 5%
plant injury at 250 g/ha (rice; Oryza sativa, read-out: Plant response rating, Rice): 35%
pest or weed control at 125 g/ha (barnyardgrass [5]; Echinochloa crus-galli, pre-emergence, 240 h, 125 g ai/ha, read-out: Plant response rating, Barnyardgrass): 100%
pest or weed control at 500 g/ha (barnyardgrass [5]; Echinochloa crus-galli, pre-emergence, 240 h, 500 g ai/ha, read-out: Barnyardgrass plant response rating): 100%
plant injury at 125 g/ha (wheat; Triticum aestivum, post-emergence, 240 h, 125 g ai/ha, 0 to 100 scale where 0 is no effect and 100 is complete control, read-out: Wheat plant response rating): 50%
plant injury at 500 g/ha (wheat; Triticum aestivum, post-emergence, 240 h, 500 g ai/ha, 0 to 100 scale where 0 is no effect and 100 is complete control, read-out: Plant response rating, Wheat): 80%
Pigweed plant response rating (pigweed [6]; [7]): 60
pest or weed control at 16 g/ha (pigweed [6]; Amaranthus retroflexus, post-emergence, 16 g ai/ha, postemergence, 0 is no effect, 100 is complete control, read-out: Plant response rating (0 to 100), Pigweed): 35%
pest or weed control at 125 g/ha (pigweed [6]; Amaranthus retroflexus, post-emergence, 125 g ai/ha, postemergence, visual rating, scale 0 to 100 (0 no effect, 100 complete control), read-out: Plant response rating, Pigweed): 85%
pest or weed control at 62 g/ha (pigweed [6]; Amaranthus retroflexus, post-emergence, Postemergence, 62 g ai/ha, scale 0 to 100 (0 no effect, 100 complete control), read-out: Plant response rating, Pigweed): 75%
Velvetleaf plant response rating (velvetleaf; [7]): 70
pest or weed control at 16 g/ha (velvetleaf; Abutilon theophrasti, post-emergence, 16 g ai/ha, postemergence, 0 is no effect, 100 is complete control, read-out: Plant response rating (0 to 100), Velvetleaf): 55%
pest or weed control at 125 g/ha (velvetleaf; Abutilon theophrasti, post-emergence, 125 g ai/ha, postemergence, visual rating, scale 0 to 100 (0 no effect, 100 complete control), read-out: Plant response rating, Velvetleaf): 75%
pest or weed control at 62 g/ha (velvetleaf; Abutilon theophrasti, post-emergence, Postemergence, 62 g ai/ha, scale 0 to 100 (0 no effect, 100 complete control), read-out: Plant response rating, Velvetleaf): 85%
pest or weed control at 16 g/ha (galium; Galium, post-emergence, 16 g ai/ha, postemergence, 0 is no effect, 100 is complete control, read-out: Plant response rating (0 to 100), Galium): 85%
pest or weed control at 31 g/ha (galium; Galium, post-emergence, 31 g ai/ha, postemergence, visual rating, scale 0 to 100 (0 no effect, 100 complete control), 13 to 15 days, read-out: Galium plant response rating): 90%
pest or weed control at 125 g/ha (galium; Galium, post-emergence, 125 g ai/ha, postemergence, visual rating, scale 0 to 100 (0 no effect, 100 complete control), read-out: Plant response rating, Galium): 90%
pest or weed control at 62 g/ha (galium; Galium, post-emergence, Postemergence, 62 g ai/ha, scale 0 to 100 (0 no effect, 100 complete control), read-out: Plant response rating, Galium): 90%
pest or weed control at 16 g/ha (kochia; Bassia scoparia, post-emergence, 16 g ai/ha, postemergence, 0 is no effect, 100 is complete control, read-out: Plant response rating (0 to 100), Kochia): 40%
pest or weed control at 31 g/ha (kochia; Bassia scoparia, post-emergence, 31 g ai/ha, postemergence, visual rating, scale 0 to 100 (0 no effect, 100 complete control), 13 to 15 days, read-out: Kochia plant response rating): 90%
pest or weed control at 125 g/ha (kochia; Bassia scoparia, post-emergence, 125 g ai/ha, postemergence, visual rating, scale 0 to 100 (0 no effect, 100 complete control), read-out: Plant response rating, Kochia): 100%
pest or weed control at 62 g/ha (kochia; Bassia scoparia, post-emergence, Postemergence, 62 g ai/ha, scale 0 to 100 (0 no effect, 100 complete control), read-out: Plant response rating, Kochia): 95%

FCc1cccc(Oc2ncc(F)cn2)c1-n1cc(I)cn1 [Compound 152]
Plant response rating, Corn (corn; [8]): 20
Corn plant response rating (corn; [9]): 30
Plant response rating, Foxtail, Giant (giant foxtail; [8]): 0
Foxtail, Giant plant response rating (giant foxtail; [9]): 40
Plant response rating, Sedge, Umbrella (sedge, umbrella): 50
Plant response rating, Pigweed (pigweed [1]; [10]): 90
Plant response rating, Pigweed (pigweed [1]; 125 g ai/ha): 90
Plant response rating, Ducksalad (Heteranthera limosa): 60
Plant response rating, Pigweed (pigweed [2]; [8]): 0
Pigweed plant response rating (pigweed [2]; [9]): 90
Plant response rating, Barnyardgrass (barnyardgrass [3]; [8]): 0
Barnyardgrass plant response rating (barnyardgrass [3]; [9]): 30
Plant response rating (0 to 100), Barnyardgrass (barnyardgrass [4]; 4 g ai/ha, postemergence, 0 is no effect, 100 is complete control): 0
Plant response rating (0 to 100), Barnyardgrass (barnyardgrass [4]; [11]): 0
Plant response rating (0 to 100), Barnyardgrass (barnyardgrass [4]; [12]): 5
Barnyardgrass plant response rating (barnyardgrass [4]; [13]): 5
Plant response rating, Rice (rice): 0
Plant response rating, Barnyardgrass (barnyardgrass [5]; [10]): 20
Plant response rating, Barnyardgrass (barnyardgrass [5]; 125 g ai/ha): 70
Plant response rating, Wheat (wheat; [8]): 20
Wheat plant response rating (wheat; [9]): 40
Plant response rating (0 to 100), Pigweed (pigweed [6]; [11]): 30
Plant response rating (0 to 100), Pigweed (pigweed [6]; [12]): 50
Pigweed plant response rating (pigweed [6]; [7]): 60
Plant response rating (0 to 100), Velvetleaf (velvetleaf; [11]): 5
Plant response rating (0 to 100), Velvetleaf (velvetleaf; [12]): 20
Velvetleaf plant response rating (velvetleaf; [7]): 45
Plant response rating (0 to 100), Galium (galium; [11]): 15
Plant response rating (0 to 100), Galium (galium; [12]): 35
Galium plant response rating (galium; [13]): 55
Plant response rating (0 to 100), Kochia (kochia; [11]): 10
Plant response rating (0 to 100), Kochia (kochia; [12]): 15
Kochia plant response rating (kochia; [13]): 40
